Results from US20250353841A1 (BIOGEN MA INC., priority 2022, published 2025).

Test system: mutant Huntington (HTT) protein
Experiment: HTT Mutant HTRF iPSC assay (mHTT protein lowering)
Type: cell-based
Conditions: human iPSC derived from a HTT patient with a poly-Q49 mutation

Compound | IC50 [nM]
Cc1cn2nc(-c3cc(F)c4nc(C(=O)NC[C@H]5CCCCN5C)cn4c3)cc(C)c2n1 [Compound 335, 6-(2,8-dimethylimidazo[1,2-b]pyridazin-6-yl)-8-fluoro-N-[[(2R)-1-methyl-2-piperidyl]methyl]imidazo[1,2-a]pyridine-2-carboxamide] | 100 to 1000
Cc1nc2ccc(-c3cc(F)c4nn(C5CCNCC5)cc4c3)nn2n1 [Compound 561, 6-(7-fluoro-2-(piperidin-4-yl)-2H-indazol-5-yl)-2-methyl-[1,2,4]triazolo[1,5-b]pyridazine] | < 100
COc1cc(-c2cc(F)c3nc(C4CCN(C)CC4)cn3c2)nn2nc(C)nc12 [Compound 225, 6-(8-fluoro-2-(1-methylpiperidin-4-yl)imidazo[1,2-a]pyridin-6-yl)-8-methoxy-2-methyl-[1,2,4]triazolo[1,5-b]pyridazine] | < 100
Cc1cn2cc(-c3cc(F)c4nc(C5CCNCC5)cn4c3)cc(Cl)c2n1 [Compound 32, 8-chloro-8′-fluoro-2-methyl-2′-(piperidin-4-yl)-6,6′-biimidazo[1,2-a]pyridine] | 100 to 1000
Cc1cn2nc(-c3cc(F)c4nc(C5CC6CCC(C5)N6)cn4c3)cc(C)c2n1 (stereo not drawn) [Compound 206] | < 100
COc1cc(-c2cc(F)c3nc(N4CCC5(CCN(C)CC5)C4)oc3c2)nn2nc(C)nc12 [Compound 505, 4-fluoro-6-(8-methoxy-2-methyl-[1,2,4]triazolo[1,5-b]pyridazin-6-yl)-2-(8-methyl-2,8-diazaspiro[4.5]decan-2-yl)benzo[d]oxazole] | < 100
Cc1cn2nc(-c3cc(F)c4[nH]c(C5CC6CCC(C5)N6)nc4c3)cc(C)c2n1 (stereo not drawn) [Compound 428, 6-(2-(8-azabicyclo[3.2.1]octan-3-yl)-7-fluoro-1H-benzo[d]imidazol-5-yl)-2,8-dimethylimidazo[1,2-b]pyridazine] | < 100
CN1CC2(c3cn4cc(-c5cc(F)c6nn(C)cc6c5)cc(F)c4n3)CC1C2 [Compound 66, 7-fluoro-5-[8-fluoro-2-(2-methyl-2-azabicyclo[2.1.1]hexan-4-yl)imidazo[1,2-a]pyridin-6-yl]-2-methyl-indazole] | 1000 to 9000
CCN1CCC(c2cn3cc(-c4ccc5nc(C)cn5c4)cc(F)c3n2)CC1 [Compound 8, 2-(1-ethylpiperidin-4-yl)-8-fluoro-2′-methyl-6,6′-biimidazo[1,2-a]pyridine] | 1000 to 9000
Cc1cn2nc(-c3cc(F)c4nc([C@@H]5CCC6(CCNCC6)C5)cn4c3)cc(C)c2n1 (single isomer, unassigned) [Compound 119] | < 100
Cc1cc(-c2cc(F)c3nn(C4CCNCC4)cc3c2)cc2cn(C)nc12 [Compound 351, 7-fluoro-2′,7′-dimethyl-2-(piperidin-4-yl)-2H,2′H-5,5′-biindazole] | 100 to 1000
CCN1C[C@@H]2[C@H](C1)[C@H]2c1cn2cc(-c3cc(C)c4nc(C)cn4n3)cc(F)c2n1 [Compound 188, 6-(2-((1R,5S,6r)-3-ethyl-3-azabicyclo[3.1.0]hexan-6-yl)-8-fluoroimidazo[1,2-a]pyridin-6-yl)-2,8-dimethylimidazo[1,2-b]pyridazine] | 100 to 1000
Cc1cn2nc(-c3cc(F)c4nc(NC(=O)C5CCCCNC5)nn4c3)cc(C)c2n1 (stereo not drawn) [Compound 321, N-(6-(2,8-dimethylimidazo[1,2-b]pyridazin-6-yl)-8-fluoro-[1,2,4]triazolo[1,5-a]pyridin-2-yl)azepane-3-carboxamide] | 100 to 1000
Cc1cn2nc(-c3cc(F)c4nc(CC5CNCCO5)nn4c3)cc(C)c2n1 (stereo not drawn) [Compound 446, 2-((6-(2,8-dimethylimidazo[1,2-b]pyridazin-6-yl)-8-fluoro-[1,2,4]triazolo[1,5-a]pyridin-2-yl)methyl)morpholine] | 100 to 1000
Fc1cc(-c2ccc3ncsc3c2)cn2cc(C3CCNCC3)nc12 [Compound 44, 6-(8-fluoro-2-(piperidin-4-yl)imidazo[1,2-a]pyridin-6-yl)benzo[d]thiazole] | 1000 to 9000
